According to PMC4550478, “Metronidazole-triazole conjugates: Activity against Clostridium difficile and parasites” (European Journal of Medicinal Chemistry, 2015):
Converted amounts (≈) assume the structure as drawn. Like-named read-outs stand apart in the source and are kept apart here.

What was measured:
[1] = test system: C. difficile NAP1/027 M7404; assay: MIC broth microdilution, C. difficile NAP1/027 M7404; type: cell-based, Clostridium difficile; settings: Clostridioides difficile, NAP1/027M7404; NAP1/027 (footnote d: M7404), MtzS, 24 h, median of at least n = 4
Experimental: All compounds were tested for activity against a set of anaerobic C. difficile bacteria (630 ATCC BAA-1382, NAP1/027 M7404, NAP1/027 ATCC BAA-1803, VPI10463 ATCC 43255, CD26A54_S and CD26A54_R) and representative ESKAPE pathogens S. aureus (MRSA ATCC 43300), E. coli (ATCC 25922), K. pneumoniae (ATCC 700603), A. baumannii (ATCC 19606) and P. aeruginosa (ATCC 27853) using a standard broth microdilution assay. Selected compounds were tested for activity against H. pylori strains (26695, and clinical isolates MtzS 13/25, MtzR 98/285 and MtzR 13/61) using agar plate dilution, and for antimicrobial activity against […] Gram-positive bacterial strains: Enterococcus faecalis (VanA clinical isolate), Enterococcus faecium (MDR VanA ATCC 51559), Streptococcus pneumoniae (MDR ATCC 700677), S. aureus (MRSA ATCC 43300, MRSA clinical isolate, MRSA/DRSA clinical isolate, GISA NARSA NRS 1, GISA NARSA NRS 17, VRSA NARSA VRS1, VRSA NARSA VRS4 and VRSA NARSA VRS10) using broth microdilution. C. difficile strains were grown at 37 °C in a COY anaerobic chamber (5% H2, 10% CO2, 85% N2). H. pylori strains were grown at 37 °C under a microaerobic atmosphere (5% O2, 10% CO2). All facultative anaerobic bacteria were grown at 37 °C with normal atmospheric oxygen levels. All experiments were performed in duplicate with metronidazole, vancomycin, linezolid or colistin as positive controls for relevant strains (see Table 1). Positive growth control of bacteria and DMSO as well as a negative control of only media were included for every plate. Full assay details are provided in the supplementary information.
C. difficile ATCC BAA-1382, ATCC BAA-1803, ATCC 43255 and M7404 heat shocked spore stocks (10 µL) were transferred into the anaerobic chamber and 10 µL streaked onto pre-reduced (at least 2.5 hr in anaerobic chamber) BHIS agar plates supplemented with 0.1% w/v sodium taurocholate (BHIS(TA)). Plates were incubated for 24 hours prior to assay to give colonies of size 1-3mm diameter with characteristic uneven borders.
The minimum inhibition concentration was determined according to the CLSI Methods with modifications in broth and inoculum for C. difficile according to Babakhani et al.^7,8 Briefly, compounds were prepared to 20X final concentration in 100% water, 60% DMSO and 40% water or 60% DMSO and 40% media. The compounds along with standard antibiotics were serially diluted two-fold across the wells of 96-well non-binding surface plates (Non binding surface, Corning). The plates were placed in the anaerobic chamber overnight to reduce. C. difficile bacteria from BHIS(TA) agar plates were cultured anaerobically in BHIS at 37 °C overnight. A sample of culture was then diluted 40-fold in BHIS broth and incubated at 37 °C for approximately 4.5 hrs. The resultant mid-log phase culture (OD600= 0.5-0.6) was diluted to the final concentration of ~1×10^6 CFU/mL, then 50 µL was added to each well of the compound-containing 96-well plates. This gave final cell concentration of 5×10^5 CFU/mL, final volume 100 µL and 3% maximum DMSO concentration. Compound concentration was typically from 64 to 0.03 µg/mL. An antibiotic standard was included on each 96 well plate as well as a positive growth control (no compound) and sterility control (no bacteria). All the plates were covered and incubated at 37 °C for 24 h. MICs were the lowest concentration showing no visible growth.

[2] = test system: C. difficile NAP1/027 CD26A54_S; assay: MIC broth microdilution, C. difficile CD26A54_S; type: cell-based, Clostridium difficile; settings: Clostridioides difficile
[3] = test system: C. difficile NAP1/027 CD26A54_R; assay: MIC broth microdilution, metronidazole resistant C. difficile CD26A54_R; type: cell-based, Clostridium difficile; settings: for MIC: Clostridioides difficile
[4] = test system: E. histolytica HM1:IMSS trophozoites; assay: ATP-bioluminescence growth and survival assay, E. histolytica; type: cell-based, Entamoeba histolytica; settings: Entamoeba histolytica; MtzS, 48 h, anaerobic, n = 3
Experimental: (§1) Compounds were tested for antiparasitic activity against E. histolytica (HM1:1MSS strain) and G. lamblia (WB, BRIS/87/HEPU/713 (713), BRIS/83/HEPU/106 (106) and the metronidazole resistant syngeneic line 713-M3 [[15,16]]) using an ATP-bioluminescence based screen for cell growth and survival [[17,18]]. Assay plates were inoculated with trophozoites (5 × 10^3 parasites/well) and incubated in the GasPak™ EZ Anaerobe Gas Generating Pouch Systems (VWR, West Chester, PA) to maintain anaerobic conditions throughout the incubation period. The assays were performed in triplicate using the CellTiter-Glo Luminescent Cell Viability Assay. Metronidazole was used as a positive control.
(§2) Trophozoites of E. histolytica strain HM1:IMSS and G. lamblia strains WB, BRIS/87/HEPU/713 (713),^10 BRIS/83/HEPU/106 (106)^11 and the metronidazole resistant syngenic line 713-M3^10,11 were axenically maintained in TYI-S-33 medium supplemented with penicillin (100 U/ml), streptomycin (100 µg/ml).^12 E. histolytica and G. lamblia trophozoites were counted using a particle counter (Beckman Coulter, Fullerton, CA). All experiments were performed using trophozoites harvested during the logarithmic phase of growth.
(§3) A three-fold serial dilution was then performed yielding a concentration range 0.25-625 µM. From this dilution plate, 4 µL were transferred into the 96-well screen plates followed by addition of 96 µL of trophozoites (5,000 parasites) to yield a final 8-point concentration range spanning 0.01- 25 µM. Assay plates were incubated for 48 h at 37 °C in the GasPak^TM EZ Anaerobe Gas Generating Pouch Systems (VWR, West Chester, PA) to maintain anaerobic condition throughout the incubation period. The assays were performed in triplicate using the CellTiter-Glo Luminescent Cell Viability Assay.^13

[5] = test system: G. lamblia WB trophozoites; assay: ATP-bioluminescence growth and survival assay, G. lamblia WB; type: cell-based, Giardia lamblia; settings: Giardia duodenalis; MtzS, 48 h, anaerobic, n = 3
Experimental: as §1, §2, §3

[6] = test system: G. lamblia BRIS/87/HEPU/713 (713); assay: ATP-bioluminescence growth and survival assay, G. lamblia 713; type: cell-based; settings: Giardia duodenalis, read-out: EC50 G. lamblia 713
Experimental: as §1, §2, §3

G. lamblia 713-M3 (713M) = assay: ATP-bioluminescence growth and survival assay, metronidazole resistant G. lamblia 713-M3; type: cell-based; settings: Giardia duodenalis, read-out: EC50 G. lamblia 713M
Experimental: as §1, §2, §3

[7] = 24 hr incubation, read-out: MIC C. difficile NAP1/027 CD26A54_S 24 hr
[8] = CD26A54_S, MtzS (intermediary), 48 h growth, read-out: MIC C. difficile NAP1/027 CD26A54_S 48 h
[9] = 24 hr incubation, read-out: MIC C. difficile NAP1/027 CD26A54_R 24 hr
[10] = CD26A54_R, MtzR, 48 h growth, BHIS broth, n = 8, read-out: MIC C. difficile NAP1/027 CD26A54_R 48 h

Structure (SMILES) | MIC [1] [µg/mL] | MIC [2, 7] [µg/mL] | MIC [2, 8] [µg/mL] | MIC C. difficile NAP1/027 CD26A54_R 24 hr ([3]; 24 hr incubation) [µg/mL] | MIC [3, 9] [µg/mL] | MIC [3, 10] [µg/mL] | EC50 [4] [µM] | EC50 [5] [nM] | EC50 ([6]; MtzS, purified compounds, this study) [nM] | EC50 (G. lamblia 713-M3 (713M)) [nM] | EC50 [6] [nM]
Cc1ncc([N+](=O)[O-])n1CCO [Compound 1, metronidazole] | 0.5 (≈ 2.92 µM) | 1 (≈ 5.84 µM) | 1 (≈ 5.84 µM) | 2 (≈ 11.7 µM) | 2 (≈ 11.7 µM) | 4 (≈ 23.4 µM) | 5 | 7900 | 2300 | 17000 | 
Cc1ncc([N+](=O)[O-])n1CCn1cc(-c2ccc(Cl)c(Cl)c2)nn1 [Compound 4d, 1-(2-(2-methyl-5-nitro-1H-imidazol-1-yl)ethyl)-4-(3,4-dichlorophenyl)-1H-1,2,3-triazole] | 1 (≈ 2.72 µM) | 1 (≈ 2.72 µM) | 1 (≈ 2.72 µM) |  | 8 to 16 (≈ 21.8 to 43.6 µM) | 8 to 16 (≈ 21.8 to 43.6 µM) | 5.2 | 390 |  | 1200 | 2500
Cc1ncc([N+](=O)[O-])n1CCn1cc(-c2ccsc2)nn1 [Compound 4n, 1-(2-(2-methyl-5-nitro-1H-imidazol-1-yl)ethyl)-4-(thiophen-3-yl)-1H-1,2,3-triazole] | 0.5 (≈ 1.64 µM) | 1 (≈ 3.29 µM) | 1 (≈ 3.29 µM) |  | 2 (≈ 6.57 µM) | 2 (≈ 6.57 µM) | 3.8 | 370 |  | 900 | 180
Cc1ccc(-c2cn(CCn3c([N+](=O)[O-])cnc3C)nn2)cc1 [Compound 4e, 1-(2-(2-methyl-5-nitro-1H-imidazol-1-yl)ethyl)-4-(p-tolyl)-1H-1,2,3-triazole] | 0.5 (≈ 1.6 µM) | 1 (≈ 3.2 µM) | 1 (≈ 3.2 µM) |  | 2 (≈ 6.4 µM) | 2 (≈ 6.4 µM) | 3.7 | 180 |  | 1000 | 290
COc1ccc(-c2cn(CCn3c([N+](=O)[O-])cnc3C)nn2)cc1 [Compound 4b, 1-(2-(2-methyl-5-nitro-1H-imidazol-1-yl)ethyl)-4-(4-methoxyphenyl)-1H-1,2,3-triazole] | 0.5 (≈ 1.52 µM) | 1 (≈ 3.05 µM) | 1 (≈ 3.05 µM) |  | 4 (≈ 12.2 µM) | 4 (≈ 12.2 µM) | 4.8 | 270 |  | 1000 | 640
COC(=O)c1cn(CCn2c([N+](=O)[O-])cnc2C)nn1 [Compound 4f, 1-(2-(2-methyl-5-nitro-1H-imidazol-1-yl)ethyl)-4-(methoxycarbonyl)-1H-1,2,3-triazole] | 1 (≈ 3.57 µM) | 1 (≈ 3.57 µM) | 2 (≈ 7.14 µM) |  | 4 (≈ 14.3 µM) | 4 (≈ 14.3 µM) | > 25 | 3000 |  | 3100 | 1800
Cc1ncc([N+](=O)[O-])n1CCn1cc(-c2ccccc2)nn1 [Compound 4a, 1-(2-(2-methyl-5-nitro-1H-imidazol-1-yl)ethyl)-4-phenyl-1H-1,2,3-triazole] | 0.5 (≈ 1.68 µM) | 1 (≈ 3.35 µM) | 1 (≈ 3.35 µM) |  | 2 (≈ 6.7 µM) | 2 (≈ 6.7 µM) | 4.2 | 250 |  | 2300 | 160
Cc1ncc([N+](=O)[O-])n1CCn1cc(CN(C)Cc2ccccc2)nn1 [Compound 4m, 1-(2-(2-methyl-5-nitro-1H-imidazol-1-yl)ethyl)-4-(N-benzyl, N-methylaminomethyl)-1H-1,2,3-triazole] | 2 (≈ 5.63 µM) | 2 (≈ 5.63 µM) | 2 (≈ 5.63 µM) |  | 8 (≈ 22.5 µM) | 8 (≈ 22.5 µM) | 4.6 | 1600 |  | 2200 | 710
Cc1ncc([N+](=O)[O-])n1CCn1cc(C(O)c2ccccc2)nn1 (stereo not shown) [Compound 4l, 1-(2-(2-methyl-5-nitro-1H-imidazol-1-yl)ethyl)-4-(1-phenyl-1-hydroxylmethyl)-1H-1,2,3-triazole] | 0.5 to 1 (≈ 1.52 to 3.05 µM) | 2 (≈ 6.09 µM) | 2 (≈ 6.09 µM) |  | 4 (≈ 12.2 µM) | 4 (≈ 12.2 µM) | > 25 | 4400 |  | 3000 | 2400
